| melting point [°C] | Structure (SMILES) |
| --- | --- |
| 164 | Cc1cc2c(cc1N(C)CC(C)C)N=C(c1cccc(-n3ncnc3CN3CCCC3)c1)CC(=O)N2 [Example 158, 7-(Isobutyl-methyl-amino)-8-methyl-4-[3-(5-pyrrolidin-1-ylmethyl-[1,2,4]triazol-1-yl)-phenyl]-1,3-dihydro-benzo[b][1,4]diazepin-2-one] |
| 250 | CC(C)Nc1cc2c(cc1Cl)NC(=O)CC(c1cccc(-n3nncc3CO)c1)=N2 [Example 161, 8-Chloro-4-[3-(5-hydroxymethyl-[1,2,3]triazol-1-yl)-phenyl]-7-isopropylamino-1,3-dihydro-benzo[b][1,4]diazepin-2-one] |
| 164 | CC(C)CN(C)c1cc2c(cc1Cl)NC(=O)CC(c1cccc(-n3ncnc3CN3CCCC3)c1)=N2 [Example 165, 8-Chloro-7-(isobutyl-methyl-amino)-4-[3-(5-pyrrolidin-1-ylmethyl-[1,2,4]triazol-1-yl)-phenyl]-1,3-dihydro-benzo[b][1,4]diazepin-2-one] |
| 170 | CCCN(C)c1cc2c(cc1Cl)NC(=O)CC(c1cccc(-n3ncnc3CN(C)C)c1)=N2 [Example 166, 8-Chloro-4-[3-(5-dimethylaminomethyl-[1,2,4]triazol-1-yl)-phenyl]-7-(methyl-propyl-amino)-1,3-dihydro-benzo[b][1,4]diazepin-2-one] |
| 191 | Cc1cc2c(cc1N(C)CC(C)C)N=C(c1cccc(-n3ncnc3CO)c1)CC(=O)N2 [Example 168, 4-[3-(5-Hydroxymethyl-[1,2,4]triazol-1-yl)-phenyl]-7-(isobutyl-methyl-amino)-8-methyl-1,3-dihydro-benzo[b][1,4]diazepin-2-one] |
| 213 | CC(C)CN(C)c1cc2c(cc1Cl)NC(=O)CC(c1cccc(-n3cncn3)c1)=N2 [Example 173, 8-Chloro-7-(isobutyl-methyl-amino)-4-(3-[1,2,4]triazol-1-yl-phenyl)-1,3-dihydro-benzo[b][1,4]diazepin-2-one] |
| 202 | CC(C)CN(C)c1cc2c(cc1C(F)(F)F)NC(=O)CC(c1cccc(-n3ccnn3)c1)=N2 [Example 176, 7-(Isobutyl-methyl-amino)-4-(3-[1,2,3]triazol-1-yl-phenyl)-8-trifluoromethyl-1,3-dihydro-benzo[b][1,4]diazepin-2-one] |
| 212 | CC(C)CNc1cc2c(cc1C(F)(F)F)NC(=O)CC(c1cccc(-n3ccnn3)c1)=N2 [Example 180, 7-(Isobutyl-amino)-4-(3-[1,2,3]triazol-1-yl-phenyl)-8-trifluoromethyl-1,3-dihydro-benzo[b][1,4]diazepin-2-one] |
| 191 | CC(C)CNc1cc2c(cc1C(F)(F)F)NC(=O)CC(c1cccc(-n3cncn3)c1)=N2 [Example 182, 7-(Isobutyl-amino)-4-(3-[1,2,4]triazol-1-yl-phenyl)-8-trifluoromethyl-1,3-dihydro-benzo[b][1,4]diazepin-2-one] |
| 136 to 137 | CCN(C)c1cc2c(cc1Cl)NC(=O)CC(c1cccc(-c3nc(CO)cs3)c1)=N2 [Example 183, 8-Chloro-7-(ethyl-methyl-amino)-4-[3-(4-hydroxymethyl-thiazol-2-yl)-phenyl]-1,3-dihydro-benzo[b][1,4]diazepin-2-one] |
| 166 to 167 | CCCN(C)c1cc2c(cc1Cl)NC(=O)CC(c1cccc(-c3nc(CO)co3)c1)=N2 [Example 188, 8-Chloro-4-[3-(4-hydroxymethyl-oxazol-2-yl)-phenyl]-7-(methyl-propyl-amino)-1,3-dihydro-benzo[b][1,4]diazepin-2-one] |
| 166 to 167 | CC(C)CN(C)c1cc2c(cc1Cl)NC(=O)CC(c1cccc(-c3nc(CO)co3)c1)=N2 [Example 190, 8-Chloro-4-[3-(4-hydroxymethyl-oxazol-2-yl)-phenyl]-7-(isobutyl-methyl-amino)-1,3-dihydro-benzo[b][1,4]diazepin-2-one] |

The remaining lines, values behind:

| Structure (SMILES) | melting point [°C] |
| --- | --- |
| Cc1cc2c(cc1N(C)CC(C)C)N=C(c1cccc(-n3ncnc3CNC3CC3)c1)CC(=O)N2 [Example 159, 4-[3-(5-Cyclopropylaminomethyl-[1,2,4]triazol-1-yl)-phenyl]-7-(isobutyl-methyl-amino)-8-methyl-1,3-dihydro-benzo[b][1,4]diazepin-2-one] | 114 |
| Cc1cc(-c2cccc(C3=Nc4cc(NC(C)C)c(Cl)cc4NC(=O)C3)c2)on1 [Example 160, 8-Chloro-7-isopropylamino-4-[3-(3-methyl-isoxazol-5-yl)-phenyl]-1,3-dihydro-benzo[b][1,4]diazepin-2-one] | 225 |
| CCCN(C)c1cc2c(cc1Cl)NC(=O)CC(c1cccc(-n3ncnc3CO)c1)=N2 [Example 162, 8-Chloro-7-(methyl-propyl-amino)-4-[3-(5-hydroxymethyl-[1,2,4]triazol-1-yl)-phenyl]-1,3-dihydro-benzo[b][1,4]diazepin-2-one] | 192 |
| CCCN(C)c1cc2c(cc1Cl)NC(=O)CC(c1cccc(-n3ncnc3CN3CCCC3)c1)=N2 [Example 164, 8-Chloro-7-(methyl-propyl-amino)-4-[3-(5-pyrrolidin-1-ylmethyl-[1,2,4]triazol-1-yl)-phenyl]-1,3-dihydro-benzo[b][1,4]diazepin-2-one] | 183 |
| CCCN(C)c1cc2c(cc1Cl)NC(=O)CC(c1cccc(-n3ncnc3CNC3CC3)c1)=N2 [Example 167, 8-Chloro-4-[3-(5-cyclopropylaminomethyl-[1,2,4]triazol-1-yl)-phenyl]-7-(methyl-propyl-amino)-1,3-dihydro-benzo[b][1,4]diazepin-2-one] | 123 |
| CCCN(C)c1cc2c(cc1C(F)(F)F)NC(=O)CC(c1cccc(-n3ccnn3)c1)=N2 [Example 170, 7-(Methyl-propyl-amino)-4-(3-[1,2,3]triazol-1-yl-phenyl)-8-trifluoromethyl-1,3-dihydro-benzo[b][1,4]diazepin-2-one] | 147 |
| CC(C)CN(C)c1cc2c(cc1C(F)(F)F)NC(=O)CC(c1cccc(-n3cccn3)c1)=N2 [Example 171, 7-(Isobutyl-methyl-amino)-4-(3-pyrazol-1-yl-phenyl)-8-trifluoromethyl-1,3-dihydro-benzo[b][1,4]diazepin-2-one] | 182 |
| CC(C)N(C)c1cc2c(cc1C(F)(F)F)NC(=O)CC(c1ccnc(C#N)c1)=N2 [Example 172, 4-[8-(Isopropyl-methyl-amino)-4-oxo-7-trifluoromethyl-4,5-dihydro-3H-benzo[b][1,4]diazepin-2-yl]-pyridine-2-carbonitrile] | 189 |
| CC(C)CN(C)c1cc2c(cc1Cl)NC(=O)CC(c1cccc(-n3ccnn3)c1)=N2 [Example 175, 8-Chloro-7-(isobutyl-methyl-amino)-4-(3-[1,2,3]triazol-1-yl-phenyl)-1,3-dihydro-benzo[b][1,4]diazepin-2-one] | 85 |
| CC(C)CNc1cc2c(cc1C(F)(F)F)NC(=O)CC(c1cccc(-n3ccnc3)c1)=N2 [Example 177, 4-(3-Imidazol-1-yl-phenyl)-7-isobutylamino-8-trifluoromethyl-1,3-dihydro-benzo[b][1,4]diazepin-2-one] | 221 |
| CC(C)CNc1cc2c(cc1Cl)NC(=O)CC(c1cccc(-n3ccnc3)c1)=N2 [Example 178, 8-Chloro-4-(3-imidazol-1-yl-phenyl)-7-isobutylamino-1,3-dihydro-benzo[b][1,4]diazepin-2-one] | 212 |
| CC(C)CNc1cc2c(cc1Cl)NC(=O)CC(c1cccc(-n3ccnn3)c1)=N2 [Example 179, 8-Chloro-7-(isobutyl-amino)-4-(3-[1,2,3]triazol-1-yl-phenyl)-1,3-dihydro-benzo[b][1,4]diazepin-2-one] | 249 |
| CC(C)CNc1cc2c(cc1Cl)NC(=O)CC(c1cccc(-n3cncn3)c1)=N2 [Example 181, 8-Chloro-7-(isobutyl-amino)-4-(3-[1,2,4]triazol-1-yl-phenyl)-1,3-dihydro-benzo[b][1,4]diazepin-2-one] | 222 |
| CCCN(C)c1cc2c(cc1Cl)NC(=O)CC(c1cccc(-c3nc(CO)cs3)c1)=N2 [Example 184, 8-Chloro-4-[3-(4-hydroxymethyl-thiazol-2-yl)-phenyl]-7-(methyl-propyl-amino)-1,3-dihydro-benzo[b][1,4]diazepin-2-one] | 211 to 213 |
| CC(C)N(C)c1cc2c(cc1Cl)NC(=O)CC(c1cccc(-c3nc(CO)cs3)c1)=N2 [Example 185, 8-Chloro-4-[3-(4-hydroxymethyl-thiazol-2-yl)-phenyl]-7-(isopropyl-methyl-amino)-1,3-dihydro-benzo[b][1,4]diazepin-2-one] | 193 to 195 |
| CCN(C)c1cc2c(cc1Cl)NC(=O)CC(c1cccc(-c3nc(CO)co3)c1)=N2 [Example 187, 8-Chloro-7-(ethyl-methyl-amino)-4-[3-(4-hydroxymethyl-oxazol-2-yl)-phenyl]-1,3-dihydro-benzo[b][1,4]diazepin-2-one] | 165 to 166 |
| CC(C)N(C)c1cc2c(cc1Cl)NC(=O)CC(c1cccc(-c3nc(CO)co3)c1)=N2 [Example 189, 8-Chloro-4-[3-(4-hydroxymethyl-oxazol-2-yl)-phenyl]-7-(isopropyl-methyl-amino)-1,3-dihydro-benzo[b][1,4]diazepin-2-one] | 143 to 145 |
| CNCc1csc(-c2cccc(C3=Nc4cc(N(C)C)c(Cl)cc4NC(=O)C3)c2)n1 [Example 191, 8-Chloro-7-dimethylamino-4-[3-(4-methylaminomethyl-thiazol-2-yl)-phenyl]-1,3-dihydro-benzo[b][1,4]diazepin-2-one] | 129 to 130 |
| CN(C)c1cc2c(cc1Cl)NC(=O)CC(c1cccc(-c3nc(CN4CCOCC4)cs3)c1)=N2 [Example 192, 8-Chloro-7-dimethylamino-4-[3-(4-morpholin-4-ylmethyl-thiazol-2-yl)-phenyl]-1,3-dihydro-benzo[b][1,4]diazepin-2-one] | 138 to 143 |
| CN(C)c1cc2c(cc1Cl)NC(=O)CC(c1cccc(-c3csc(CO)n3)c1)=N2 [Example 193, 8-Chloro-7-dimethylamino-4-[3-(2-hydroxymethyl-thiazol-4-yl)-phenyl]-1,3-dihydro-benzo[b][1,4]diazepin-2-one] | 176 to 178 |

Reference: patent US6544985B2, “Dihydro-benzo [b][1,4]diazepin-2-one derivatives” (Hoffman-La Roche Inc., priority 2001, dated 2003)
